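Each compound was tested at five concentrations against cells in 96-well plates for 48 hours. TGI marks complete inhibition of growth.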
Columns and labels:
Test in all cases: growth of human tumour cells (NCI), 48 h
786-0 renal = test system: 786-0 renal
A549 NSCLC = test system: A549 NSCLC
ACHN renal = test system: ACHN renal
CAKI-1 renal = test system: CAKI-1 renal
CCRF-CEM leukemia = test system: CCRF-CEM leukemia
COLO 205 colon = test system: COLO 205 colon
DLD-1 colon = test system: DLD-1 colon
DMS 114 small cell lung = test system: DMS 114 small cell lung
EKVX NSCLC = test system: EKVX NSCLC
HCT-116 colon = test system: HCT-116 colon
HCT-15 colon = test system: HCT-15 colon
HL-60(TB) leukemia = test system: HL-60(TB) leukemia
HOP-18 NSCLC = test system: HOP-18 NSCLC
HOP-62 NSCLC = test system: HOP-62 NSCLC
HOP-92 NSCLC = test system: HOP-92 NSCLC
HT29 colon = test system: HT29 colon
IGROV1 ovarian = test system: IGROV1 ovarian
K-562 leukemia = test system: K-562 leukemia
KM12 colon = test system: KM12 colon
LOX IMVI melanoma = test system: LOX IMVI melanoma
LXFL 529 NSCLC = test system: LXFL 529 NSCLC
M14 melanoma = test system: M14 melanoma
M19-MEL melanoma = test system: M19-MEL melanoma
MOLT-4 leukemia = test system: MOLT-4 leukemia
NCI-H226 lung = test system: NCI-H226 lung
NCI-H23 lung = test system: NCI-H23 lung
NCI-H460 lung = test system: NCI-H460 lung
NCI-H522 lung = test system: NCI-H522 lung
OVCAR-3 ovarian = test system: OVCAR-3 ovarian
OVCAR-4 ovarian = test system: OVCAR-4 ovarian
OVCAR-5 ovarian = test system: OVCAR-5 ovarian
OVCAR-8 ovarian = test system: OVCAR-8 ovarian
RPMI-8226 leukemia = test system: RPMI-8226 leukemia
RXF 393 renal = test system: RXF 393 renal
SF-268 CNS = test system: SF-268 CNS
SF-295 CNS = test system: SF-295 CNS
SF-539 CNS = test system: SF-539 CNS
SK-MEL-2 melanoma = test system: SK-MEL-2 melanoma
SK-MEL-28 melanoma = test system: SK-MEL-28 melanoma
SK-MEL-5 melanoma = test system: SK-MEL-5 melanoma
SK-OV-3 ovarian = test system: SK-OV-3 ovarian
SN12C renal = test system: SN12C renal
SNB-19 CNS = test system: SNB-19 CNS
SNB-78 CNS = test system: SNB-78 CNS
SR leukemia = test system: SR leukemia
SW-620 colon = test system: SW-620 colon
TK-10 renal = test system: TK-10 renal
U251 CNS = test system: U251 CNS
UACC-62 melanoma = test system: UACC-62 melanoma
XF 498 CNS = test system: XF 498 CNS

Measured: TGI

CCOC(=O)NC(=O)c1cn(CCN2CCNCC2)c(=O)[nH]c1=O
> 100 µM: 786-0 renal | A549 NSCLC | ACHN renal | CAKI-1 renal | CCRF-CEM leukemia | COLO 205 colon | DLD-1 colon | DMS 114 small cell lung | EKVX NSCLC | HCT-116 colon | HCT-15 colon | HL-60(TB) leukemia | HOP-18 NSCLC | HOP-62 NSCLC | HOP-92 NSCLC | HT29 colon | IGROV1 ovarian | K-562 leukemia | KM12 colon | LOX IMVI melanoma | LXFL 529 NSCLC | M14 melanoma | M19-MEL melanoma | MOLT-4 leukemia | NCI-H226 lung | NCI-H23 lung | NCI-H460 lung | NCI-H522 lung | OVCAR-3 ovarian | OVCAR-4 ovarian | OVCAR-5 ovarian | OVCAR-8 ovarian | RPMI-8226 leukemia | RXF 393 renal | SF-268 CNS | SF-295 CNS | SF-539 CNS | SK-MEL-2 melanoma | SK-MEL-28 melanoma | SK-MEL-5 melanoma | SK-OV-3 ovarian | SN12C renal | SNB-19 CNS | SNB-78 CNS | SR leukemia | SW-620 colon | TK-10 renal | U251 CNS | UACC-62 melanoma | XF 498 CNS

Source: PubChem BioAssay (NCI)
